Source: ChEMBL document CHEMBL3124747, “Formosusin A, a novel specific inhibitor of mammalian DNA polymerase β from the fungus Paecilomyces formosus” (Bioorg Med Chem, 2014)

Key:
[1] = Inhibition of C-terminal His-6-tagged L. cv.Nipponbare rice recombinant DNA polymerase lambda expressed in Escherichia coli assessed as inhibition of incorporation of dTTP into poly(dA)/oligo(dT)18 after 60 mins; set-up: species or system Oryza sativa
Deoxyribonuclease-1 = Deoxyribonuclease-1 (Bos taurus, UniProt P00639); assay: Inhibition of bovine deoxyribonuclease 1 assessed as inhibition of incorporation of dTTP into poly(dA)/oligo(dT)18 after 60 mins
[2] = target: T1, DNA polymerase delta catalytic subunit (Drosophila melanogaster, UniProt P54358); assay: Inhibition of fruit fly DNA polymerase delta assessed as inhibition of incorporation of dTTP into poly(dA)/oligo(dT)18 after 60 mins
T1 sequence (P54358 whole entry): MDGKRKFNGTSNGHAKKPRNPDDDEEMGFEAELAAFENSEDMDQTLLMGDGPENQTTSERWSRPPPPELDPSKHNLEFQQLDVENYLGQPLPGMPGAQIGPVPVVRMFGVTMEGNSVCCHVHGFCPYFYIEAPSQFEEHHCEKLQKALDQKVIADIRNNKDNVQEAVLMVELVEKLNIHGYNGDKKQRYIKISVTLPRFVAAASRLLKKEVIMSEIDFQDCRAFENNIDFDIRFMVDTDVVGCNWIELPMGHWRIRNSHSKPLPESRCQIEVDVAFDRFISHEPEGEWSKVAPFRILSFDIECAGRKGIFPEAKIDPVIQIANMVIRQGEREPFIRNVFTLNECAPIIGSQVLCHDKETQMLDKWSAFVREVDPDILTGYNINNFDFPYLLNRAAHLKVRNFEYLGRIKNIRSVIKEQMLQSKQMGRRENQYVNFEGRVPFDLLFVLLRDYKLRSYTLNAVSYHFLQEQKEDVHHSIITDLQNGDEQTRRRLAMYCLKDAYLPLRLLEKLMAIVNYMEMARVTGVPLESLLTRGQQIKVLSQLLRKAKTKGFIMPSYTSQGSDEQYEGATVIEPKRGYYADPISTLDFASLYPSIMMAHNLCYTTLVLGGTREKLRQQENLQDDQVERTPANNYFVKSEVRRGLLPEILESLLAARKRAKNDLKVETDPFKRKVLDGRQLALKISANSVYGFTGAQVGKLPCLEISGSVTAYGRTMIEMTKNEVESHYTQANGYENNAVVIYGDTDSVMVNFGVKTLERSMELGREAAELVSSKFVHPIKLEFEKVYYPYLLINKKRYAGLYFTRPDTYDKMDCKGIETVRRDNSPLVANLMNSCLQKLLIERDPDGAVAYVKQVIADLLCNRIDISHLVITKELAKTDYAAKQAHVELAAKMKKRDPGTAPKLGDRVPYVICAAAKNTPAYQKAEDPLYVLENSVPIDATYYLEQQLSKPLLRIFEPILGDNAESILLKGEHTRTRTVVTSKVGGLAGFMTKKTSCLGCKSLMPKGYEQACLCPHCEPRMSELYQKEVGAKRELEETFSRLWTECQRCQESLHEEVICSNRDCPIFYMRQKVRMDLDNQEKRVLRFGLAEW

[3] = target: T2, DNA-directed DNA polymerase (Enterobacteria phage T4, UniProt P04415); assay: Inhibition of T4 bacteriophage DNA polymerase assessed as inhibition of incorporation of dTTP into poly(dA)/oligo(dT)18 after 60 mins; set-up: species or system Tequatrovirus T4
T2 sequence (P04415 whole entry): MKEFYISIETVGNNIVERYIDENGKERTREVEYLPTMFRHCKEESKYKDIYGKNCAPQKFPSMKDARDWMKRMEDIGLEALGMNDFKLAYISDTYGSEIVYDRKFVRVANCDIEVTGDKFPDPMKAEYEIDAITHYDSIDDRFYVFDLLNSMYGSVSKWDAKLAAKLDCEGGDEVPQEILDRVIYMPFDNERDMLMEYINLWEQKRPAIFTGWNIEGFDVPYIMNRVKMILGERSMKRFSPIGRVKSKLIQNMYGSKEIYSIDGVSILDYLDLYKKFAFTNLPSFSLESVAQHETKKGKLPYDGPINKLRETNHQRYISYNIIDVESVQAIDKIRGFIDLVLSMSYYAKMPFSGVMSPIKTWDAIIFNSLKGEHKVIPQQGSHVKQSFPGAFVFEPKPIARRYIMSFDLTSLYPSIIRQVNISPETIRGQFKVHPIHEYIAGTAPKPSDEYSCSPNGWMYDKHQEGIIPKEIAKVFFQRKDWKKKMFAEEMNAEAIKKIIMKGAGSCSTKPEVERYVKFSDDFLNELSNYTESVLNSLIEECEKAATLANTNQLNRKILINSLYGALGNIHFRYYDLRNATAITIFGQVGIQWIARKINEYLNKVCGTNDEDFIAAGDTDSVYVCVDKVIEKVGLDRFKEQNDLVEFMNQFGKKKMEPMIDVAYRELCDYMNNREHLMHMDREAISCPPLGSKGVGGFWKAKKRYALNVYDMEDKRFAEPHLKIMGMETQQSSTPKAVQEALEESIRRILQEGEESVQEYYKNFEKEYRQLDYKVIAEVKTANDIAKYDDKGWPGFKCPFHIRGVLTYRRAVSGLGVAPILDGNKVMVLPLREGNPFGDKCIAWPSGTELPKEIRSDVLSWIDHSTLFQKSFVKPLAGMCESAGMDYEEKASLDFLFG

[4] = Inhibition of cherry salmon DNA polymerase delta assessed as inhibition of incorporation of dTTP into poly(dA)/oligo(dT)18 after 60 mins; set-up: species or system Oncorhynchus masou
Polynucleotide kinase = Polynucleotide kinase (Enterobacteria phage T4, UniProt P06855); assay: Inhibition of T4 bacteriophage polynucleotide kinase assessed as inhibition of incorporation of dTTP into poly(dA)/oligo(dT)18 after 60 mins; set-up: species or system Tequatrovirus T4
DNA polymerase lambda = target: T3, DNA polymerase lambda (Homo sapiens, UniProt Q9UGP5); assay: Inhibition of human recombinant His-tagged DNA polymerase lambda expressed in Escherichia coli assessed as inhibition of incorporation of dTTP into poly(dA)/oligo(dT)18 after 60 mins
T3 sequence (Q9UGP5 whole entry): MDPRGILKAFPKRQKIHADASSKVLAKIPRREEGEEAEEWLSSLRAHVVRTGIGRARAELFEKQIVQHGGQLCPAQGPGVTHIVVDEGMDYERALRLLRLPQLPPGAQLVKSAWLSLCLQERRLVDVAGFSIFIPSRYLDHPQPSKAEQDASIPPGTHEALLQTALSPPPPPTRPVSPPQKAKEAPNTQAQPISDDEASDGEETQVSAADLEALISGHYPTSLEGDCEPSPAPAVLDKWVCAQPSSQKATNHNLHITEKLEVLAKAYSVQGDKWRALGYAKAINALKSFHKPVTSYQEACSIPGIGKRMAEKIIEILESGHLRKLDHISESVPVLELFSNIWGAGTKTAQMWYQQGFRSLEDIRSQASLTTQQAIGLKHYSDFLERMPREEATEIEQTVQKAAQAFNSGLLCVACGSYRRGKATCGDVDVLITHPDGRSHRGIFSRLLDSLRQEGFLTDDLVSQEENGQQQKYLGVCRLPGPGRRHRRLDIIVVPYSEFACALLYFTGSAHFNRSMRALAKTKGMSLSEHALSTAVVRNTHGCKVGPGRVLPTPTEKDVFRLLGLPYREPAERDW

Measured: IC50

Sequence of Deoxyribonuclease-1 (P00639 whole entry): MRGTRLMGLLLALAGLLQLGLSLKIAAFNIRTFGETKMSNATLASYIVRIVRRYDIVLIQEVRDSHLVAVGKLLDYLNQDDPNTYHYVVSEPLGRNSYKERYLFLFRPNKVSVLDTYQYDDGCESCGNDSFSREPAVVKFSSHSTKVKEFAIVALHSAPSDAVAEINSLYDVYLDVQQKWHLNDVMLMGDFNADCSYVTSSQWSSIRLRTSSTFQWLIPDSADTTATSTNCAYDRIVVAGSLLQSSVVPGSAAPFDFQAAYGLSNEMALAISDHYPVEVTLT
Sequence of Polynucleotide kinase (P06855 whole entry): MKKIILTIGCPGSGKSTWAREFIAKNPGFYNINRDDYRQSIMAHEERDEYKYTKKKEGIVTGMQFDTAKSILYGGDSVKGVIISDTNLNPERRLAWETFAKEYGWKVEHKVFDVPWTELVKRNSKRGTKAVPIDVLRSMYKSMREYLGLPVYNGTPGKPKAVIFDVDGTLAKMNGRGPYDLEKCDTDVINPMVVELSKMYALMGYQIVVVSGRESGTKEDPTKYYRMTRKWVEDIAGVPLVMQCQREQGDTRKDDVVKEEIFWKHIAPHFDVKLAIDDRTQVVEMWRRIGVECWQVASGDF

CCCC[C@@H](O)/C=C(C)/C=C/C=C\C(=O)N1CCCC1=O
> 200 µM: all assays above

CCCCC(=O)/C=C(C)/C=C/CCC(=O)N1CCCC1=O
> 200 µM: all assays above

CCCC[C@@H](O)/C=C(C)/C=C/C=C/C(=O)N1CCCC1=O [PECILOCIN]
> 200 µM: all assays above

CC(/C=C/CCC(=O)N1CCCC1=O)=C\C1CCCCO1 (stereo not drawn)
> 200 µM: all assays above
